According to patent US20250074910A1, “MENIN INHIBITOR AND USE THEREOF” (HITGEN INC., priority 2021, published 2025):

Key:
MOLM-13 = assay: Cell proliferation inhibition (CellTiter-Glo), MOLM-13; assay type: cell-based; conditions: Homo sapiens, MOLM-13, 168 h, MOLM-13 cells
Outline: (§1)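 IC50 values come from dose-response fitting of CellTiter-Glo luminescence after 72-168 h compound exposure (final 1 nM-10 μM) at 37° C and 5% CO2, with 5,000-20,000 cells plated per well.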

[1] = Stability in human liver microsomes; assay type: in vitro ADME; conditions: human, liver microsomes, pH 7.4, Human; 0.5 mg/mL microsomal protein, 1.00 μM compound, NADPH; read-out: Half life T1/2, human liver microsomes
Outline: (§2)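 Compound at 1.00 μM incubated at 37° C with 0.5 mg/mL liver microsomal protein and 2.00 mM NADPH in 100 mM phosphate buffer pH 7.4, sampled 0–60 min with acetonitrile quench. Parent remaining by LC-MS/MS; T½ from ln-remaining slope, CLint scaled by microsomal concentration and conversion factor.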

OCI-AML3 = assay: Cell proliferation inhibition (CellTiter-Glo), OCI-AML3 (NPM1 mutation); assay type: cell-based; conditions: Homo sapiens, OCI-AML-3, 168 h, OCI-AML3 cells
Outline: as §1

[2] = Stability in mouse liver microsomes; assay type: in vitro ADME; conditions: liver microsomes, pH 7.4, 0.5 mg/mL microsomal protein, 1.00 μM compound, NADPH, read-out: Half life T1/2, mouse liver microsomes
Outline: as §2

[3] = Stability in dog liver microsomes; assay type: in vitro ADME; conditions: dog, liver microsomes, pH 7.4, Dog; 0.5 mg/mL microsomal protein, 1.00 μM compound, NADPH; read-out: Half life T1/2, dog liver microsomes
Outline: as §2

[4] = biological target: hERG potassium ion channel (Homo sapiens (Human), UniProt Q12809); assay: hERG potassium channel effect test (manual patch clamp, HEK293 cells overexpressing hERG); assay type: cell-based; conditions: for inhibition at 30 μM: human, HEK293 cells overexpressing hERG potassium ion channels, read-out: Average inhibition rate of hERG current at the highest compound tested concentration; for IC50: manual patch clamp, highest test concentration 30 μM
Sequence of hERG potassium ion channel (Q12809 whole entry): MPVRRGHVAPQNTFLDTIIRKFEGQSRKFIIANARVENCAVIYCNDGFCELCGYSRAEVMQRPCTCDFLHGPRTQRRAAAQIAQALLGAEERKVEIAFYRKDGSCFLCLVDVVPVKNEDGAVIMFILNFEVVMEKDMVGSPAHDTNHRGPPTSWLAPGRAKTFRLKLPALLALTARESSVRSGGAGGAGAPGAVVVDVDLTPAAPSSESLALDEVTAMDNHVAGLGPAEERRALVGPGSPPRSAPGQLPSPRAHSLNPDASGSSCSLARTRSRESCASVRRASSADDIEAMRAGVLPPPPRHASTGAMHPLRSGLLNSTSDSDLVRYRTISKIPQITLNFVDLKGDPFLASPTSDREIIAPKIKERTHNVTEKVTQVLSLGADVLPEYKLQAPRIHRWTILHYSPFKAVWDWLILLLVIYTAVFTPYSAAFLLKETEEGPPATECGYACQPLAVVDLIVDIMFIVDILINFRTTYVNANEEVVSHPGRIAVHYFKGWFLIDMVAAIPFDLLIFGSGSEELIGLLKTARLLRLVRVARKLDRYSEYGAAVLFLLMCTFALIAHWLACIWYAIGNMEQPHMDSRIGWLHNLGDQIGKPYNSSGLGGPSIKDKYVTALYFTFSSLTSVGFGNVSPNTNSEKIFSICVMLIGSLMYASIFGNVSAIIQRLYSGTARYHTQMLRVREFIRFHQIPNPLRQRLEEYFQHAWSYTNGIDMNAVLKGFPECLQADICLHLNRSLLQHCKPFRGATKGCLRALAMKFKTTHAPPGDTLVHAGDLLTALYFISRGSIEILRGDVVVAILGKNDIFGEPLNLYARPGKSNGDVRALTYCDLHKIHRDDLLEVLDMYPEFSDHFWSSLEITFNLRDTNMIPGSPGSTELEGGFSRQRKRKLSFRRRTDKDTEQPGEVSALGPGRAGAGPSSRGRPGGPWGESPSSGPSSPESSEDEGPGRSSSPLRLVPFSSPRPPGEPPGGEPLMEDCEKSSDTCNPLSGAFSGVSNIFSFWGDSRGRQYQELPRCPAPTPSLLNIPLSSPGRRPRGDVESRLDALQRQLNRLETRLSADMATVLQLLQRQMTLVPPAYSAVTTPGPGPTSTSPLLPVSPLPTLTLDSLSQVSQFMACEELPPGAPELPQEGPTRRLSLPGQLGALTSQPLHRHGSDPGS
Protocol: Test Example 6: hERG Potassium Channel Effect Test
The hERG inhibition test was performed on some of the example compounds of the present disclosure using the manual electrophysiological patch clamp method. The cell line was derived from HEK293 cells that overexpressed hERG potassium ion channels. The specific experimental protocol was developed by PharmaCore Labs with reference to literature published in peer-reviewed journals and was performed by PharmaCore Labs in accordance with its standard experimental operating procedures. The highest test concentration was 30 μM.

SMILES	GI50 (MOLM-13)	half-life at 1 μM [1]	GI50 (OCI-AML3)	half-life at 1 μM [2]	half-life at 1 μM [3]	inhibition at 30 μM [4]	IC50 [4]
CC(C)N(C(=O)c1cc(F)ccc1Oc1nncnc1N1CC2(CCN(CC3CC4CCC3CC43CCC(=O)N3)CC2)C1)C(C)C (single isomer, unassigned) [Example 15-1a]	154 nM	0.614 h	82.5 nM	1.52 h	> 2 h		
COC[C@H]1C[C@]2(CC[C@@H](CN3CCC4(CC3)CN(c3ncnnc3Oc3ccc(F)cc3C(=O)N(C(C)C)C(C)C)C4)CC2)NC1=O [Example 38-1]	194 nM	1.47 h	115 nM	> 2 h	> 2 h	10.3%	> 30000 nM

Stronger by GI50 (MOLM-13), values ahead:

GI50 (MOLM-13)	half-life at 1 μM [1]	GI50 (OCI-AML3)	half-life at 1 μM [2]	half-life at 1 μM [3]	SMILES	inhibition at 30 μM [4]	IC50 [4]
36.1 nM	1.25 h	35.2 nM	1.85 h	> 2 h	COCC1(COC)C[C@]2(CC[C@@H](CN3CCC4(CC3)CN(c3ncnnc3Oc3ccc(F)cc3C(=O)N(C(C)C)C(C)C)C4)CC2)NC1=O [Example 20]	13.2%	> 30000 nM
23.3 nM	1.04 h	21.8 nM	1.08 h	1.64 h	COC[C@@H]1C[C@]2(CC[C@@H](CN3CCC4(CC3)CN(c3ncnnc3Oc3ccc(F)cc3C(=O)N(C(C)C)C(C)C)C4)CC2)NC1=O [Example 38-2]		
7.9 nM	0.522 h	14.2 nM	> 2 h	> 2 h	CCN(C(=O)c1cc(F)ccc1Oc1cncnc1N1CC2(CCN(C[C@H]3CC[C@]4(CC3)CC(COC)(COC)C(=O)N4)CC2)C1)C(C)C [Example 17]		
